Test results from patent US9622429B2, “Method for increasing plant biomass” (BioMass Booster, S.L., priority 2010, dated 2017).

Legend:
Type in all cases: cell-based
[1] = test system: tobacco (Nicotiana tabacum) calli; assay: Callus growth (biomass increase) on medium containing adrenomedullin, tobacco
Text: (§1) Carrot (Daucus carota) and tobacco (Nicotiana tabacum) calli were supplied by Carolina Biological Supply Company (Burlington, N.C., USA) and kept under sterile conditions in solid callus initiation medium for carrots or for tobacco respectively (also acquired from Carolina Biological). The specific composition thereof is available in the company's catalog. A single callus was split into small fragments and these fragments were weighed under sterile conditions and seeded on fresh medium (solid callus initiation medium acquired from Carolina Biologicals) which contained different concentrations of the synthetic peptide human adrenomedullin (AM) (Phoenix Pharmaceuticals, Burlingame, Calif., USA). After 30 days of growth in the dark, the calli were weighed again and the growth rate was calculated as the quotient of the final weight divided by the initial weight. The dry weight of each sample was calculated by subjecting the calli to an oven drying process at […] for 24 hours.

[2] = test system: Carrot (Daucus carota) calli; assay: Callus growth (biomass increase) on medium containing adrenomedullin, carrot
Text: as §1

Chlorella = assay: Microalgae growth in culture, absorbance at 680 nm; settings: final concentration of 10^−8 M AM, Guillard F/2 medium, 5% CO2, 12 hours light/12 hours dark
Experimental: Two identical cultures of Chlorella in Guillard F/2 medium [Guillard, R. R. L. 1975. Culture of phytoplankton for feeding marine invertebrates. pp 26-60. In Smith W. L. and Chanley M. H (Eds.) Culture of Marine Invertebrate Animals. Plenum Press, New York, USA.; Guillard, R. R. L. and Ryther, J. H. 1962. Studies of marine planktonic diatoms. I. Cyclotella nana Hustedt and Detonula confervacea Cleve. Can. J. Microbiol. 8: 229-239] (250 ml each) were prepared in two separate glass flasks. Then, 100 μl of said Guillard F/2 medium were added to a flask and 100 μl of said Guillard F/2 medium containing the synthetic peptide human adrenomedullin (AM) (Phoenix Pharmaceuticals, Burlingame, Calif., USA) in a sufficient amount to achieve a final concentration of 10^−8 M to the other flask.
Air containing 5% CO2 was continuously bubbled in the culture. The flasks were illuminated with a photoperiod of 12 hours light/12 hours dark.
Aliquots from the medium were periodically collected in order to assess the microalgae growth. Absorbance was measured at 680 nm with a Perkin Elmer Lambda 35 UV/Visible spectrofotometer.

[3] = different concentrations of AM, 30 days of growth in the dark
[4] = oven drying at 250° C. for 24 hours

## human adrenomedullin [AM]
[1]; 30 days of growth in the dark
  most effective concentration of AM for stimulating cell growth: 10^−10 M
[1]; [3]
  growth of the calli (growth rate = final weight / initial weight): growth increase in the calli following a dose-dependent response
[1]; optimal dose of AM, 30 days
  increase in the biomass when compared with the control: 60%
[1]; [4]
  dry weight of the tissue: differences were maintained
[2]; 30 days of growth in the dark
  most effective concentration of AM for stimulating cell growth: 10^−10 M
[2]; [3]
  growth of the calli (growth rate = final weight / initial weight): growth increase in the calli following a dose-dependent response
[2]; optimal dose of AM, 30 days
  increase in the biomass when compared with the control: 60%
[2]; [4]
  dry weight of the tissue: differences were maintained
Chlorella
  microalgae growth (absorbance at 680 nm): grow up faster and reach the stationary phase sooner than the non-treated microalgae
